Measured values published in ChEMBL document CHEMBL1151061, “Synthesis and inhibitory effects of bivalent sialyl lewis X analogs at preventing cell adhesion” (Bioorg Med Chem Lett, 1997).
pIC50: −log10 of the molar value.

Target: T1, E-selectin (Homo sapiens, UniProt P16581)
T1 sequence (P16581 whole entry): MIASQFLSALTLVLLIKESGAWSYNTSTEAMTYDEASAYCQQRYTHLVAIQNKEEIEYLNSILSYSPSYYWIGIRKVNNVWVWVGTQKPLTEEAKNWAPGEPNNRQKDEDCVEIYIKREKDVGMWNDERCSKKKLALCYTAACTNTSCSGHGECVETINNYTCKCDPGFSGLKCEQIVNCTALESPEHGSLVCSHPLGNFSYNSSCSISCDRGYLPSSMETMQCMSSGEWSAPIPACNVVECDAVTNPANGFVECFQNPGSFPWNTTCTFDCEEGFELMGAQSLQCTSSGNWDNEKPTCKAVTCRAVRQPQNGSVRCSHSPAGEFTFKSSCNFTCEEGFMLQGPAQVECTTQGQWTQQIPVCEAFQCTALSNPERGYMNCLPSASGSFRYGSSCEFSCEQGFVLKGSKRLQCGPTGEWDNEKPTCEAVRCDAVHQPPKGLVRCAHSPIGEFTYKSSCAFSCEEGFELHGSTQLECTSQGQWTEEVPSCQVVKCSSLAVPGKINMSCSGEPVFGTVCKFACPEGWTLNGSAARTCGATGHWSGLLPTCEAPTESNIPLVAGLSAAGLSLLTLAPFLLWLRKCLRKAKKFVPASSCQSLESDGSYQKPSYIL
Assay: Compound was evaluated for its inhibitory activity against adhesion of HL-60(human promyelocytic leukemia cells) to recombinant human soluble E-selectin (rhsE).

pIC50	SMILES
4.43	CC(=O)N[C@@H]1[C@@H]([C@H](O)[C@H](O)CO)O[C@](O[C@H]2[C@@H](O)[C@@H](O[C@@H]3[C@@H](O[C@H]4O[C@H](C)[C@H](O)[C@@H](O)[C@H]4O)[C@@H](NC(=O)c4ccc5ccccc5c4)[C@@H](OCCCOc4cccc(OCCCO[C@@H]5O[C@@H](CO)[C@@H](O[C@@H]6O[C@@H](CO)[C@H](O)[C@H](O[C@]7(C(=O)O)C[C@@H](O)[C@@H](NC(C)=O)[C@H]([C@H](O)[C@H](O)CO)O7)[C@@H]6O)[C@H](O[C@@H]6O[C@@H](C)[C@@H](O)[C@H](O)[C@@H]6O)[C@@H]5NC(=O)c5ccc6ccccc6c5)c4)O[C@@H]3CO)O[C@H](CO)[C@H]2O)(C(=O)O)C[C@@H]1O
4.49	CO[C@H]1O[C@@H](O[C@H]2[C@H](O[C@@H]3O[C@@H](C)[C@@H](O)[C@@H](O)[C@@H]3O)[C@@H](NC(=O)c3ccc4ccccc4c3)[C@H](OCCCc3cccc(CCCO[C@@H]4O[C@H](CO)[C@@H](O[C@@H]5O[C@H](OC)[C@H](O)[C@H](O[C@]6(C(=O)O)C[C@H](O)[C@@H](NC(C)=O)[C@H]([C@H](O)[C@H](O)CO)O6)[C@H]5O)[C@H](O[C@@H]5O[C@@H](C)[C@@H](O)[C@@H](O)[C@@H]5O)[C@H]4NC(=O)c4ccc5ccccc5c4)c3)O[C@@H]2CO)[C@H](O)[C@@H](O[C@]2(C(=O)O)C[C@H](O)[C@@H](NC(C)=O)[C@H]([C@H](O)[C@H](O)CO)O2)[C@H]1O
4.22	CC(=O)N[C@@H]1[C@@H]([C@H](O)[C@H](O)CO)O[C@](O[C@H]2[C@@H](O)[C@@H](O[C@@H]3[C@@H](O[C@H]4O[C@H](C)[C@H](O)[C@@H](O)[C@H]4O)[C@@H](NC(=O)c4ccc5ccccc5c4)[C@@H](OCCc4cccc(CCO[C@@H]5O[C@@H](CO)[C@@H](O[C@@H]6O[C@@H](CO)[C@H](O)[C@H](O[C@]7(C(=O)O)C[C@@H](O)[C@@H](NC(C)=O)[C@H]([C@H](O)[C@H](O)CO)O7)[C@@H]6O)[C@H](O[C@@H]6O[C@@H](C)[C@@H](O)[C@H](O)[C@@H]6O)[C@@H]5NC(=O)c5ccc6ccccc6c5)c4)O[C@@H]3CO)O[C@H](CO)[C@H]2O)(C(=O)O)C[C@@H]1O
4.31	COC(=O)N[C@@H]1C(O)C(OC2C(O)[C@H](O[C@@H]3C(CO)O[C@@H](OCCCO[C@H]4CCC[C@H](OCCCO[C@@H]5OC(CO)[C@@H](O[C@@H]6OC(CO)[C@H](O)C(OC7C(O)[C@@H](NC(=O)OC)C([C@H](O)[C@H](O)CO)O[C@H]7C(=O)O)C6O)C(O[C@@H]6OC(C)[C@H](O)C(O)C6O)C5Nc5ccc6ccccc6c5)C4)C(Nc4ccc5ccccc5c4)C3O[C@@H]3OC(C)[C@H](O)C(O)C3O)OC(CO)[C@@H]2O)[C@H](C(=O)O)OC1[C@H](O)[C@H](O)CO (stereo partly drawn)
4.52	CC(=O)N[C@@H]1[C@@H]([C@H](O)[C@H](O)CO)O[C@](O[C@H]2[C@@H](O)[C@@H](O[C@@H]3[C@@H](O[C@H]4O[C@H](C)[C@H](O)[C@@H](O)[C@H]4O)[C@@H](NC(=O)c4ccc5ccccc5c4)[C@@H](OCc4cccc(CO[C@@H]5O[C@@H](CO)[C@@H](O[C@@H]6O[C@@H](CO)[C@H](O)[C@H](O[C@]7(C(=O)O)C[C@@H](O)[C@@H](NC(C)=O)[C@H]([C@H](O)[C@H](O)CO)O7)[C@@H]6O)[C@H](O[C@@H]6O[C@@H](C)[C@@H](O)[C@H](O)[C@@H]6O)[C@@H]5NC(=O)c5ccc6ccccc6c5)c4)O[C@@H]3CO)O[C@H](CO)[C@H]2O)(C(=O)O)C[C@@H]1O
2.82	CCO[C@@H]1O[C@@H](CO)[C@@H](O[C@@H]2O[C@@H](CO)[C@H](O)[C@H](O[C@]3(C(=O)O)C[C@@H](O)[C@@H](NC(C)=O)[C@H]([C@H](O)[C@H](O)CO)O3)[C@@H]2O)[C@H](O[C@@H]2O[C@@H](C)[C@@H](O)[C@H](O)[C@@H]2O)[C@@H]1NC(C)=O
4.39	COC(=O)N[C@@H]1C(O)C(OC2C(O)[C@H](O[C@@H]3C(CO)O[C@@H](OCCCO[C@@H]4CCC[C@H](OCCCO[C@@H]5OC(CO)[C@@H](O[C@@H]6OC(CO)[C@H](O)C(OC7C(O)[C@@H](NC(=O)OC)C([C@H](O)[C@H](O)CO)O[C@H]7C(=O)O)C6O)C(O[C@@H]6OC(C)[C@H](O)C(O)C6O)C5Nc5ccc6ccccc6c5)C4)C(Nc4ccc5ccccc5c4)C3O[C@@H]3OC(C)[C@H](O)C(O)C3O)OC(CO)[C@@H]2O)[C@H](C(=O)O)OC1[C@H](O)[C@H](O)CO (stereo partly drawn)
3.70	CC(=O)N[C@H]1[C@H]([C@H](O)[C@H](O)CO)O[C@@](O[C@@H]2[C@H](O)[C@H](O[C@H]3[C@H](O[C@@H]4O[C@@H](C)[C@@H](O)[C@H](O)[C@@H]4O)[C@H](NC(=O)c4ccc5ccccc5c4)[C@H](OCCCc4cccc(CCCO)c4)O[C@H]3CO)O[C@@H](CO)[C@@H]2O)(C(=O)O)C[C@H]1O
